From patent US11976061B2, “Preparation of benzimidazolone derivatives as novel diacylglyceride O-acyltransferase 2 inhibitors” (Merck Sharp & Dohme LLC, priority 2020, dated 2024) come the findings set out here.

Where only a bound is given, the exact number is not on record here.

In one test the target is T1, human DGAT2 (hDGAT2) (Homo sapiens, UniProt Q96PD7).
T1 construct: made in house; host or cells: Sf-9 insect cells (baculovirus), membrane fraction
T1 sequence (Q96PD7 1-388): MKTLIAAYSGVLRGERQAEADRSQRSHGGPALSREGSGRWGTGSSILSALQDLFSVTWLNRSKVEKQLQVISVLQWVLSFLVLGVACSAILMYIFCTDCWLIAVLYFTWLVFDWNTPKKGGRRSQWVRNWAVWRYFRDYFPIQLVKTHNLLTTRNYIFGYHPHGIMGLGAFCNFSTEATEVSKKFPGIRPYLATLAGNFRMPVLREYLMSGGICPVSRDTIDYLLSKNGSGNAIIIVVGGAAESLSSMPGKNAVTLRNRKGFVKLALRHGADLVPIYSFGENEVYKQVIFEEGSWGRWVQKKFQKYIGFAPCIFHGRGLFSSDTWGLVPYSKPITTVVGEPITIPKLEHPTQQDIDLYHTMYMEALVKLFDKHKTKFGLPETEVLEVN
Put plainly: DGAT2 Enzymatic Activity Assay. The test is classed as biochemical. The settings on record: membrane prep of Sf-9 cells expressing hDGAT2; 25 μM diolein, 5 μM 13C oleoyl-CoA; 13C18-triolein by LC/MS/MS; read-out: DGAT2 IC50. In a few lines:
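Membranes from Sf-9 cells expressing untagged human DGAT2 (8 ng/μL) incubated at rt in 100 mM Tris·Cl pH 7.0, 20 mM MgCl2, 5% ethanol with 25 μM diolein and 5 μM 13C oleoyl-CoA. 13C18-triolein product quantified by LC/MS/MS against 13C21-triolein internal standard; IC50 by 4-parameter fit.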
One may read the IC50 as the concentration needed to halve the response being measured. Regarding `CCOc1cc(-n2c(=O)n(C(C)C(C)(C)O)c3cc(C(=O)NC4(C)CCS(=O)(=O)CC4)ccc32)c(F)cn1` (single isomer, unassigned) [Example 69a, 1-(2-ethoxy-5-fluoropyridin-4-yl)-3-(3-hydroxy-3-methylbutan-2-yl)-N-(4-methyl-1,1-dioxidotetrahydro-2H-thiopyran-4-yl)-2-oxo-2,3-dihydro-1H-benzo[d]imidazole-5-carboxamide], the IC50 is 9.7 nM.

In the case of `CC(C)n1c(=O)n(-c2cccc(C(F)(F)F)c2)c2ccc(C(=O)NC3(C)CCS(=O)(=O)CC3)cc21` [Example 53, 3-isopropyl-N-(4-methyl-1,1-dioxidotetrahydro-2H-thiopyran-4-yl)-2-oxo-1-(3-(trifluoromethyl)phenyl)-2,3-dihydro-1H-benzo[d]imidazole-5-carboxamide], the half-maximal inhibitory concentration (IC50) came to 1830 nM. As to `CC(C)n1c(=O)n(-c2cccc(OC(F)F)c2)c2c(F)cc(C(=O)N[C@@]3(C)CCS(=O)(=O)C3)cc21` [Example 109, 1-[3-(difluoromethoxy)phenyl]-7-fluoro-3-isopropyl-N-[(3S)-3-methyl-1,1-dioxo-thiolan-3-yl]-2-oxo-benzimidazole-5-carboxamide], the IC50 worked out at 9 nM. As to `CC(C)n1c(=O)n(-c2cccc(OC(F)F)c2)c2ncc(C(=O)NC3(C)CS(=O)(=O)C3)cc21` [Example 104, 3-[3-(difluoromethoxy)phenyl]-1-isopropyl-N-(3-methyl-1,1-dioxo-thietan-3-yl)-2-oxo-imidazo[4,5-b]pyridine-6-carboxamide], the IC50 came to 94 nM.

Turning to `CC(C(F)F)n1c(=O)n(-c2cccc(OC(F)F)c2)c2ccc(C(=O)NC3(C)CCS(=O)(=O)CC3)cc21` (single isomer, unassigned) [Example 45b, 1-(3-(Difluoromethoxy)phenyl)-3-(1,1-difluoropropan-2-yl)-N-(4-methyl-1,1-dioxidotetrahydro-2H-thiopyran-4-yl)-2-oxo-2,3-dihydro-1H-benzo[d]imidazole-5-carboxamide], the IC50 was 101 nM. For the compound `CCOc1cccc(-n2c(=O)n(C(C)C)c3cc(C(=O)NC4(C)CCS(=O)(=O)CC4)cnc32)c1` [Example 99, 3-(3-ethoxyphenyl)-1-isopropyl-N-(4-methyl-1,1-dioxo-thian-4-yl)-2-oxo-imidazo[4,5-b]pyridine-6-carboxamide], the 50% inhibitory concentration (IC50) was found to be 52 nM.

`CC(C)n1c(=O)n(-c2cccc(C(N)=O)c2)c2ccc(C(=O)NC3(C)CCS(=O)(=O)CC3)cc21` [Example 55, 1-(3-carbamoylphenyl)-3-isopropyl-N-(4-methyl-1,1-dioxidotetrahydro-2H-thiopyran-4-yl)-2-oxo-2,3-dihydro-1H-benzo[d]imidazole-5-carboxamide]: the IC50 is over 9990 nM. For `CC(C)n1c(=O)n(-c2cccc(OC(F)(F)F)c2)c2ncc(C(=O)NC3(C)CS(=O)(=O)C3)cc21` [Example 91, 1-isopropyl-N-(3-methyl-1,1-dioxo-thietan-3-yl)-2-oxo-3-[3-(trifluoromethoxy)phenyl]imidazo[4,5-b]pyridine-6-carboxamide], the IC50 was 355 nM. Consider `CC(C)n1c(=O)n(-c2cc(OC(F)(F)C(F)F)ccn2)c2cc(F)c(C(=O)NC3(C)CCS(=O)(=O)CC3)cc21` [Example 118, 6-fluoro-3-isopropyl-N-(4-methyl-1,1-dioxidotetrahydro-2H-thiopyran-4-yl)-2-oxo-1-(4-(1,1,2,2-tetrafluoroethoxy)pyridin-2-yl)-2,3-dihydro-1H-benzo[d]imidazole-5-carboxamide], for which the IC50 turned out to be 5.5 nM.

Regarding `CC(n1c(=O)n(-c2cc(OCC(F)F)ncc2F)c2cc(F)c(C(=O)NC3(C)CCS(=O)(=O)CC3)cc21)C(C)(C)O` (single isomer, unassigned) [Example 74a, 1-(2-(2,2-difluoroethoxy)-5-fluoropyridin-4-yl)-6-fluoro-3-(3-hydroxy-3-methylbutan-2-yl)-N-(4-methyl-1,1-dioxidotetrahydro-2H-thiopyran-4-yl)-2-oxo-2,3-dihydro-1H-benzo[d]imidazole-5-carboxamide], the IC50 stood at 6.1 nM. `CC(C)[C@@H](CO)NC(=O)c1ccc2c(c1)n(C(C)C)c(=O)n2-c1cccc(OC(F)F)c1` [Example 34, 1-[3-(difluoromethoxy)phenyl]-N-[(1S)-1-(hydroxymethyl)-2-methyl-propyl]-3-isopropyl-2-oxo-benzimidazole-5-carboxamide]: the IC50 was determined as 62 nM.

For `CC(C)n1c(=O)n(-c2cccc(OC(F)F)c2)c2ccc(C(=O)N[C@]3(C)CCS(=O)(=O)C3)c(F)c21` [Example 125, (R)-1-(3-(Difluoromethoxy)phenyl)-4-fluoro-3-isopropyl-N-(3-methyl-1,1-dioxidotetrahydrothiophen-3-yl)-2-oxo-2,3-dihydro-1H-benzo[d]imidazole-5-carboxamide], the IC50 was 203 nM. In the case of `CC1(NC(=O)c2ccc3c(c2)n(Cc2ccc(F)cc2)c(=O)n3-c2cccc(OC(F)F)c2)CCS(=O)(=O)CC1` [Example 59, 1-(3-(difluoromethoxy)phenyl)-3-(4-fluorobenzyl)-N-(4-methyl-1,1-dioxidotetrahydro-2H-thiopyran-4-yl)-2-oxo-2,3-dihydro-1H-benzo[d]imidazole-5-carboxamide], the IC50 was 38 nM. Take `CSc1cccc(-n2c(=O)n(C(C)C)c3cc(C(=O)NC4(C)CCS(=O)(=O)CC4)ccc32)c1` [Example 56, 3-isopropyl-N-(4-methyl-1,1-dioxidotetrahydro-2H-thiopyran-4-yl)-1-(3-(methylthio)phenyl)-2-oxo-2,3-dihydro-1H-benzo[d]imidazole-5-carboxamide]: the IC50 was found to be 367 nM. With `CC(C)n1c(=O)n(-c2cccc(N(C)C)c2)c2ccc(C(=O)NC3(C)CCS(=O)(=O)CC3)cc21` [Example 54, 1-(3-(dimethylamino)phenyl)-3-isopropyl-N-(4-methyl-1,1-dioxidotetrahydro-2H-thiopyran-4-yl)-2-oxo-2,3-dihydro-1H-benzo[d]imidazole-5-carboxamide], the IC50 worked out at 1320 nM.

The test is the same for the next values; noted with them: membrane prep of Sf-9 cells expressing hDGAT2; 25 μM diolein, 5 μM 13C oleoyl-CoA; 13C18-triolein by LC/MS/MS; read-out: Human DGAT2 IC50.
For the compound `CC(C)n1c(=O)n(-c2cccc(OC(F)F)c2)c2cc(F)c(C(=O)NC3(C)CCS(=O)(=O)CC3)cc21` [Example 112, 1-(3-(Difluoromethoxy)phenyl)-6-fluoro-3-isopropyl-N-(4-methyl-1,1-dioxidotetrahydro-2H-thiopyran-4-yl)-2-oxo-2,3-dihydro-1H-benzo[d]imidazole-5-carboxamide], the IC50 was found to be 73.8 nM. With `CCOc1cc(-n2c(=O)n(C(C)C)c3cc(C(=O)NC4(C)CS(=O)(=O)C4)c(F)cc32)c(F)cn1` [Example 21, 1-(2-Ethoxy-5-fluoropyridin-4-yl)-6-fluoro-3-isopropyl-N-(3-methyl-1,1-dioxidothietan-3-yl)-2-oxo-2,3-dihydro-1H-benzo[d]imidazole-5-carboxamide], the half-inhibitory concentration (IC50) is 31 nM. The same measure, in the same setting: next, `CC(n1c(=O)n(-c2cc(OC(F)F)ccc2F)c2ccc(C(=O)NC3(C)CS(=O)(=O)C3)cc21)C(C)(C)O` (single isomer, unassigned) [EX-65a, 1-(5-(difluoromethoxy)-2-fluorophenyl)-3-(3-hydroxy-3-methylbutan-2-yl)-N-(3-methyl-1,1-dioxidothietan-3-yl)-2-oxo-2,3-dihydro-1H-benzo[d]imidazole-5-carboxamide]: 53 nM; `CC(C)n1c(=O)n(-c2cccc(OC(F)(F)C(F)F)c2)c2ccc(C(=O)NC3(C)CS(=O)(=O)C3)cc21` [Example 7, 3-isopropyl-N-(3-methyl-1,1-dioxo-thietan-3-yl)-2-oxo-1-[3-(1,1,2,2-tetrafluoroethoxy)phenyl]benz-imidazole-5-carboxamide]: 16 nM; `CC(C)n1c(=O)n(-c2cccc(OC(F)F)c2)c2ccc(C(=O)NC3(C)CCS(=O)(=O)CC3)cc21` [Example 25, 1-(3-(difluoromethoxy)phenyl)-3-isopropyl-N-(4-methyl-1,1-dioxidotetrahydro-2H-thiopyran-4-yl)-2-oxo-2,3-dihydro-1H-benzo[d]imidazole-5-carboxamide]: 23 nM. As to `CC(C)n1c(=O)n(-c2cc(OC(F)F)ccc2F)c2ccc(C(=O)NC3(C)CS(=O)(=O)C3)cc21` [Example 80, 1-(5-(Difluoromethoxy)-2-fluorophenyl)-3-isopropyl-N-(3-methyl-1,1-dioxidothietan-3-yl)-2-oxo-2,3-dihydro-1H-benzo[d]imidazole-5-carboxamide], the half-maximal inhibitory concentration (IC50) came out at 7.7 nM. `CC(n1c(=O)n(-c2cc(OC(F)F)ccc2F)c2ccc(C(=O)NC3(C)CS(=O)(=O)C3)cc21)C(C)(C)O` (single isomer, unassigned) [EX-65b, 1-(5-(difluoromethoxy)-2-fluorophenyl)-3-(3-hydroxy-3-methylbutan-2-yl)-N-(3-methyl-1,1-dioxidothietan-3-yl)-2-oxo-2,3-dihydro-1H-benzo[d]imidazole-5-carboxamide]: the IC50 came out at 0.7 nM. `CCOc1cccc(-n2c(=O)n(C(C)C)c3cc(C(=O)NC4(C)CS(=O)(=O)C4)ccc32)c1` [Example 9, 1-(3-ethoxyphenyl)-3-isopropyl-N-(3-methyl-1,1-dioxo-thietan-3-yl)-2-oxo-benzimidazole-5-carboxamide]: the IC50 amounted to 4.3 nM.
